Laboratory results from patent US7704756B2, “Fluorogenic dyes” (Novartis Vaccines and Diagnostics, Inc., priority 2003, dated 2010).

Tests used:
[1] = pH 7.5 buffer
Method: An experiment was conducted to test the ability of compound 12 to respond to reducing conditions. Two incubations were performed: in the first, a control incubation, a sample of compound 12 was added to pH 7.5 buffer. In a second incubation (+DTT), the same amount of compound 12 was added to pH 7.5 buffer and then DTT was added to a final concentration of 10 mM.

[2] = Reporter selectively fluorescent under reducing conditions (DTT versus control buffer); format: physicochemical; settings: compound 9 at 50 mM
Method: An experiment was conducted to determine the effect of reducing conditions versus non-reducing conditions on a reporter compound according to the invention (compound 9). Two incubations were conducted with compound 9 at a concentration of 50 mM. A control incubation was conducted which compared the same molar concentration of compound 9 in 10 mM Na phosphate at pH 7.5. A reducing reaction composition was made comprising the same buffer, and 10 mM dithiothreitol (DTT). […] For this example, synthesis of compound was conducted as previously described.

mass spectrometry analysis of content of DTT containing reaction ([2]; 10 mM Na phosphate pH 7.5, 10 mM DTT)	fluorescence under reducing conditions ([2]; 10 mM Na phosphate pH 7.5, 10 mM dithiothreitol (DTT), after one minute at room temperature)	mass spectrometry analysis of content of control reaction ([2]; 10 mM Na phosphate pH 7.5, no DTT)	Compound	colour of solution after addition of DTT (formation of free dichlorodithiofluorescein dye) ([1]; DTT 10 mM final, within one minute after addition)	colour of control incubation ([1]; no DTT)
–	–	–	5(6)-Carboxy-2′,7′-dichloro-3′,6′-bis(2′″-trimethylammonium(ethanedithio))fluorescein [compound 12]	turned light blue	remained colorless
only fluorescein	strong green fluorescence	only compound 9	CC(=O)O.CC(C)(CCSSCC[N+](C)(C)C)C(=O)Oc1ccc2c(c1)Oc1cc(OC(=O)C(C)(C)CCSSCC[N+](C)(C)C)ccc1C21OC(=O)c2ccccc21 [compound 9, Bis(4-(2′-(trimethylamino)ethanedithio)-2,2-dimethylbutyryl)carboxyfluorescein]	–	–
